Residue numbers refer to the chain shown, from its start.
How the values were obtained:
non-glyc-HS2ST H142K = biological target: T1, non-glyc-HS2ST H142K (Gallus gallus, UniProt Q76KB1, H142K); assay: BLI equilibrium binding, non-glyc-HS2ST H142K; design: species or system chicken; settings: BLI saturation binding curves, n = 3, ± standard error of fit
T1 construct: made in house; host or cells: E. coli Origami B (DE3)
T1 sequence (Q76KB1 69-356 H142K limits assumed): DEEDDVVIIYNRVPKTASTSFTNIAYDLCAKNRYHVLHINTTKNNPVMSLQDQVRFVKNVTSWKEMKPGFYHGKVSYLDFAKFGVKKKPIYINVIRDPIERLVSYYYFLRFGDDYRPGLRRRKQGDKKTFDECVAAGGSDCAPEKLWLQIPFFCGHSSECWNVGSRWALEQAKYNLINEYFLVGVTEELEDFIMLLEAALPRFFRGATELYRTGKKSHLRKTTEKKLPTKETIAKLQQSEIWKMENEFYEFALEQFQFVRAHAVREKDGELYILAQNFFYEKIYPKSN
Description: (§1) To assess whether the inhibitory compounds interact with the active site, point mutations were introduced in non-glyc-HS2ST (Fig. 4a). Four mutants of the catalytic residue (H142A/E/R/K) were created, along with a mutation of the residue that facilitates 2-O-sulfation of IdoA residues (R189A)[27]. Additionally, a negative control (NC) was generated containing multiple mutations of positively charged residues (R189A, R80E, and R184E) that reduced the net charge of each protein monomer by 5. The extent that the mutations affected affinity provided an indication that the ligand had been bound in the active site (Table 1 and Supplementary Fig. 1). While R189A markedly diminished the affinity for all compounds, the NC mutations reduced affinity to immeasurable levels. Removal of the catalytic side chain (H142A) enhanced the affinity of each compound, compared to the WT, by approximately 2–3-fold. Addition of a positive charge at this location (H142K/R) further enhanced the affinity for each compound, so much so that a KD value could be measured even for 2. The H142E mutation diminished the affinity of 5 by half compared to WT, but its effects were less significant for binding to 3 or 4.
(§2) The chicken HS2ST-Maltose Binding Protein (MBP) fusion protein was expressed and purified according to previous studies. The fusion protein was transformed into E. coli Origami B (DE3) cells, cultured at 37 °C until OD600 reached 0.5, then induced with isopropyl-β-D-thiogalactopyranoside and allowed to grow overnight at 20 °C. Cells were sonicated, followed by a two-step purification procedure. Whole-cell supernatant was passed through an amylose column with Tris buffer (25 mM Tris, 500 mM NaCl, pH 7.5). An elution buffer consisted of Tris Buffer with 40 mM Maltose. The amylose column eluent was concentrated and loaded on a Superdex 200 Increase 10/300 GL with PBS buffer (10 mM sodium phosphate, 150 mM NaCl, pH 7.8) to separate trimeric protein from aggregate and independent MBP (Supplementary Fig. 4). All reported mutations formed homotrimeric complexes according to the SEC profiles, including the negative control (NC = R189A/R80E/R184E). Protein concentration was assessed via UV at 280 nm (MW of trimer ~210 KDa, extinction coefficient ~119,000 M^−1 cm^−1 according to ExPASy ProtParam webtool[56]). The trimeric protein preparation was adjusted to 5% glycerol and stored at −20 °C until use. Additional non-glyc-HS2ST constructs were created with the Q5® Mutagenesis kit (New England Biolabs Inc.; cat. # E0554S) and sequenced at the Georgia Genomics Facility at the University of Georgia.
The Octet® RED96 system (FortéBio Inc.) was employed to detect the affinity of the enzymes for specific HS targets. […]

non-glyc-HS2ST H142E = biological target: T2, non-glyc-HS2ST H142E (Gallus gallus, UniProt Q76KB1, H142E); assay: BLI equilibrium binding, non-glyc-HS2ST H142E; design: species or system chicken; settings: for Kd: BLI saturation binding curves, n = 3, ± standard error of fit, — = response too weak to fit
T2 construct: made in house; host or cells: E. coli Origami B (DE3)
T2 sequence (Q76KB1 69-356 H142E limits assumed): T1 sequence (Q76KB1 69-356 H142K limits assumed) with K74E
Description: as §1, §2
The Octet® RED96 system (FortéBio Inc.) was employed to detect the affinity of the enzymes for specific HS targets. Due to the small size of the glycan and the deep HS2ST binding cavity, the glycan and protein were treated as ligand and analyte, respectively. Varyingly sulfated HS fragments conjugated to biotin linkers were purchased from Glycan Therapeutics Inc. with purities greater than 93% according to HPLC (sequences located in Supplementary Table 1). The glycans were immobilized onto streptavidin (SA) labeled biosensors (FortéBio; cat. #18–5019) at 0.5 µg/mL. Experiments were performed at 25 °C in PBS Buffer (10 mM sodium phosphate, 150 mM NaCl, pH 7.8) with a final concentration of 1X Pall Kinetics buffer (FortéBio Inc; cat. #18–1092). Fresh biosensors and protein samples were used for each measurement (no regeneration step). […]

Kd (non-glyc-HS2ST H142K)	Kd (non-glyc-HS2ST H142E)	Diminution of affinity by H142E compared to WT (non-glyc-HS2ST H142E; non-glyc-HS2ST H142E versus WT, BLI)	Substance
0.011 ± 0.002 µM	0.019 ± 0.003 µM		GlcNS6S-GlcA-GlcNS3S6S-IdoA2S-GlcNS6S-GlcA~ [Compound 4]
0.022 ± 0.002 µM	0.14 ± 0.011 µM	half	GlcNS6S-GlcA-GlcNS6S-GlcA-GlcNS6S-GlcA~ [Compound 5]
0.015 ± 0.002 µM	0.041 ± 0.004 µM		GlcNS6S-GlcA-GlcNS6S-IdoA2S-GlcNS6S-GlcA~ [Compound 3]
0.198 ± 0.034 µM	> 0.5 µM		GlcNS-GlcA-GlcNS-IdoA2S-GlcNS-GlcA~ [Compound 2]

From publication PMC6081452, “Downstream Products are Potent Inhibitors of the Heparan Sulfate 2-O-Sulfotransferase” (Scientific Reports, 2018)
